Measured values published in PubChem BioAssay (NCI).
Where “and” joins values, the source holds several entries; their conditions need not be identical. Identical values can stand only once.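 Method: 48-hour compound exposure of cells in 96-well plates, five concentrations, linear interpolation of endpoints. At the GI50, growth is halved. TGI: total growth inhibition.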

Columns and labels:
Test in all cases: inhibition of tumour cell growth, NCI panel, 48 h
[1] = test system: LOX IMVI melanoma
[2] = test system: SK-MEL-28 melanoma
[3] = test system: CAKI-1 renal
[4] = test system: M14 melanoma
[5] = test system: UO-31 renal
[6] = test system: ACHN renal
[7] = test system: UACC-257 melanoma
[8] = test system: MDA-MB-231 breast
[9] = test system: SF-295 CNS
[10] = test system: 786-0 renal

Compound	GI50 [1]	TGI [1]	GI50 [2]	TGI [2]	GI50 [3]	TGI [3]	GI50 [4]	TGI [4]	GI50 [5]	TGI [5]	GI50 [6]	TGI [6]	GI50 [7]	TGI [7]	GI50 [8]	TGI [8]	GI50 [9]	TGI [9]	GI50 [10]	TGI [10]
COC12C=C/C(=C(/C(=O)OCCSc3ccnn3C)C(=O)CCCCCCCCC3(OC)C=C/C(=C(/C(=O)OCCSc4ccnn4C)C(=O)CCCCCCCC1)O3)O2	0.573 µM	1.18 µM	1.09 µM	8.24 µM	1.18 µM	> 32.5 µM	0.873 µM	2.4 µM	0.942 µM	11.1 µM	1.07 µM	> 32.5 µM	1.35 µM	11.4 µM	1.05 µM	3.06 µM	0.948 µM	2.93 µM	1.07 µM	4.12 µM
O=C(O)/C=C/c1ccc[c]([Sb](=[O])([OH])[OH])c1	> 100 µM	> 100 µM	> 100 µM	> 100 µM	> 100 µM	> 100 µM	> 100 µM	> 100 µM	> 100 µM	> 100 µM	> 100 µM	> 100 µM	> 100 µM	> 100 µM	> 100 µM	> 100 µM	> 100 µM	> 100 µM	> 100 µM	> 100 µM
O=c1cc(-c2ccccc2)oc2ccc(OC/C(=N/O)c3ccc(F)cc3)cc12	5.46 µM	12.3 µM	3.33 µM	16.2 µM	3.57 µM	16.2 µM	4.48 µM	> 50 µM	10.8 µM	> 50 µM	10.3 µM	> 50 µM	9.77 µM	38.2 µM	6.16 µM	27.2 µM	1.79 µM	8.12 µM	8.97 µM	> 50 µM
O=C1OCC(c2ccc(O)cc2)=C1c1cc(O)c(O)c(O)c1	32.6 µM	> 100 µM	> 100 µM	> 100 µM	43.2 µM	89.6 µM	> 100 µM	> 100 µM	> 100 µM	> 100 µM	> 100 µM	> 100 µM	> 100 µM	> 100 µM	> 100 µM	> 100 µM	26.4 µM	50.4 µM	62.5 µM	> 100 µM
CC(CN1CC(=O)NC(=O)C1)N1CC(=O)NC(=O)C1 (stereo not given)		> 750 µM		> 750 µM		> 750 µM		> 750 µM		> 750 µM		> 750 µM		> 750 µM		> 750 µM		> 750 µM		> 750 µM
CCN1C(=O)N(CC)C2C1NN=c1s/c(=C\c3cccs3)c(=O)n12 (stereo not given)	0.139 µM	> 100 µM		> 100 µM	0.0745 µM	> 100 µM	0.105 µM	> 100 µM	0.594 µM	> 100 µM	0.253 µM	> 100 µM	> 100 µM	> 100 µM	0.468 µM	> 100 µM	0.069 µM	> 100 µM	1.03 µM	> 100 µM
COc1cccc(Sc2ccc([N+](=O)[O-])c3no[n+]([O-])c23)c1	3.38 µM	11.5 µM	6.52 µM	14 µM	10.5 µM	24.1 µM	14.3 µM	33.9 µM	2.27 µM	7.74 µM	2.84 µM	8.78 µM	14 µM	29.9 µM	11.2 µM	28 µM	24.5 µM	62.8 µM	19.5 µM	34.8 µM
COC1CC(C)C(OC)c2cc(O)cc(c2O)NC(=O)/C(C)=C/C=C\C(C)C(OC(N)=O)/C(C)=C\C(C)C1OC (stereo not given)	0.165 µM and 0.255 µM	1.74 µM and 6.91 µM	0.291 µM	6.89 µM and 9.62 µM	6.93 µM and 7.45 µM	16.3 µM and 14.4 µM	0.267 µM and 1.27 µM	18.7 µM and 10.5 µM	8.32 µM	17.4 µM and 15.6 µM	6.71 µM	12.6 µM and 13.2 µM	0.561 µM and 0.693 µM	10.3 µM and 10.5 µM	0.291 µM and 0.243 µM and 1.16 µM	10.3 µM and 8.54 µM	0.665 µM	9.09 µM and 8.02 µM	4.62 µM	11.5 µM and 24.3 µM
Cc1cc2c(cc1C)[n+](=O)c(C(=O)/C=C/c1ccc3c(c1)OCO3)c(C)n2[O-]		> 85.2 µM		> 100 µM		> 89 µM		> 100 µM		> 100 µM		> 75.8 µM		> 100 µM		> 100 µM		50 µM		> 100 µM
O=C1Nc2ccccc2/C1=C\c1cccc(/C=C2/C(=O)Nc3ccccc32)n1	0.19 µM	0.44 µM	0.218 µM	0.468 µM	0.338 µM	1.27 µM	0.484 µM	2.11 µM	0.779 µM	2.37 µM	0.308 µM	1.12 µM	0.241 µM	0.633 µM	1.25 µM	2.77 µM	0.499 µM	2.24 µM	1.08 µM	2.49 µM
CC(=O)NNc1nc(C)c(C(/C=C/c2ccc([N+](=O)[O-])cc2)=N/NC(N)=O)s1		> 100 µM		> 100 µM		> 100 µM		> 100 µM		> 100 µM		> 100 µM		> 100 µM		> 100 µM		> 100 µM		> 100 µM
CCOc1cc(C(=O)O)c2c(ccc3ccc(OC)c(OC)c32)c1OC		> 100 µM		> 100 µM		> 100 µM		> 100 µM		> 100 µM		> 100 µM		> 100 µM		> 100 µM		> 100 µM		> 100 µM
COc1ccc(C(C#N)=C2C=CC(=NO)C=C2)cc1	1.91 µM	4.5 µM	28.7 µM	86.7 µM	4.88 µM	15.1 µM	6.09 µM	19.6 µM	4.23 µM	14.6 µM	8.63 µM	21.1 µM	10.5 µM	30.6 µM	12.6 µM	35.3 µM	4.8 µM	17.1 µM	4.95 µM	15.3 µM
O=C1C=C2C=CC3CC2(O1)C1CCCCN31 (stereo not given)	17.7 µM and 18 µM and 53.3 µM	44.4 µM and 42.8 µM and > 100 µM	17.3 µM and 13.4 µM and 89.3 µM	39 µM and 36.4 µM and > 100 µM	17.7 µM and 22.3 µM and 43.3 µM	78.8 µM and 79.5 µM and > 100 µM	28.1 µM and 24 µM and 54.4 µM	> 100 µM	14.5 µM and 13.8 µM and 38.3 µM	> 100 µM	23.9 µM and 15.9 µM and 50.2 µM	> 100 µM and 84.3 µM	25 µM and 13.8 µM and 86.8 µM	> 100 µM and 66.7 µM	19 µM and 21.6 µM and 39.7 µM	> 100 µM and 67.9 µM		> 100 µM and 76.1 µM	16.3 µM and 15.5 µM and 45.6 µM	41.3 µM and 49.8 µM and > 100 µM
Cc1cc(C(=O)Nc2cc(Oc3ccc4nc(NC(=O)C5CC5)cn4n3)ccc2C)n(C)n1	> 10 µM	> 10 µM	> 10 µM	> 10 µM	> 10 µM	> 10 µM	5.51 µM	> 10 µM	> 10 µM	> 10 µM	> 10 µM	> 10 µM	> 10 µM	> 10 µM	> 10 µM	> 10 µM	> 10 µM	> 10 µM	> 10 µM	> 10 µM
CN(C)c1ccc(C(=N)c2ccc(N(C)C)cc2)cc1	5.37 µM and 4.92 µM	33 µM and 30.2 µM	4.82 µM and 3.26 µM	48.8 µM and 27.5 µM	1.62 µM and 3.57 µM	14.6 µM and 68.5 µM	2.13 µM and 2.95 µM	10.8 µM and 16.8 µM	3.65 µM and 5.86 µM	32 µM and > 100 µM	6.5 µM and 7.39 µM	> 100 µM	6.56 µM and 4.76 µM	30.8 µM and 32.6 µM	5.77 µM and 7.67 µM	47.5 µM and 30.9 µM	2.01 µM and 3.4 µM	11.9 µM and 21.9 µM	6.12 µM and 8.26 µM	24.4 µM and 32 µM
Cc1ccc(-c2c(C#N)[n+](=O)c3cc(F)c(F)cc3n2[O-])cc1	> 100 µM	> 100 µM	20.5 µM	38.4 µM	2.48 µM	5.74 µM	2.18 µM	5.73 µM	9.79 µM	37.7 µM	2.2 µM	5.83 µM	23.5 µM	48.7 µM	1.81 µM	3.98 µM	2.01 µM	5.27 µM	1.54 µM	3.53 µM
c1cc(CN2CCCNCCNCCCNCC2)ccc1CN1CCCNCCNCCCNCC1	> 100 µM	> 100 µM	> 100 µM	> 100 µM	> 100 µM	> 100 µM	> 100 µM	> 100 µM	> 100 µM	> 100 µM	> 100 µM	> 100 µM	> 100 µM	> 100 µM	> 100 µM	> 100 µM	> 100 µM	> 100 µM	> 100 µM	> 100 µM
COc1cccc(-n2ncc3c(N/N=C/c4ccc(C)cc4)ncnc32)c1	> 25 µM	> 25 µM	> 25 µM	> 25 µM	> 25 µM	> 25 µM	> 25 µM	> 25 µM	> 25 µM	> 25 µM	> 25 µM	> 25 µM	> 21.7 µM	> 25 µM	> 25 µM	> 25 µM	> 25 µM	> 25 µM	> 25 µM	> 25 µM
Nc1ncnc2c1c(-c1ccc(Oc3ccccc3)cc1)nn2C[C@H]1SSC[C@@H]1O	0.257 µM	1.79 µM	0.147 µM	0.403 µM	1.62 µM	12.7 µM	0.071 µM	0.206 µM	1.68 µM	5.7 µM	0.482 µM	9.3 µM	0.374 µM	16.1 µM	0.934 µM	7.84 µM	1.95 µM	9.9 µM	3.09 µM	12 µM
CC(CN(C)C)S(=O)(=O)c1ccc(-c2cnc(N)c(C(=O)Nc3ccccc3)n2)cc1 (stereo not given)	2.82 µM	16.7 µM	7.22 µM	21.4 µM	3.02 µM	> 50.8 µM	4.06 µM	21.9 µM	4.78 µM	28.7 µM	1.35 µM	16.9 µM	2.04 µM	5.06 µM	10.6 µM	27.6 µM	8.49 µM	25.7 µM	2.37 µM	15.2 µM
O=C1NC(O)c2ccccc2O1 (stereo not given)		> 100 µM		> 100 µM		> 100 µM		> 100 µM		> 100 µM		> 100 µM		> 100 µM		> 100 µM		> 100 µM		> 100 µM
COC1(OC)C2(Cl)C(Cl)=C(Cl)C1(Cl)C1c3ccc(C(C)=O)c4cccc(c34)C12 (stereo not given)		> 100 µM		> 100 µM		> 100 µM		> 96.4 µM		> 100 µM		> 87.4 µM		> 100 µM		> 100 µM		> 100 µM		> 100 µM
C/C(=N\NC(=O)CC#N)C(CN1CCCCC1)C(c1ccccc1)c1c(O)c2ccccc2oc1=O (stereo not given)		40.1 µM		> 100 µM		> 100 µM		> 100 µM		> 100 µM		> 100 µM		> 100 µM		> 100 µM				> 100 µM
CC/C=C\C[C@H](O)C/C=C1/C(=O)C=C[C@@H]1C/C=C\CCCC(=O)OC(C)C	0.18 µM	0.41 µM	1.41 µM	3.05 µM	2.51 µM	10.3 µM	0.79 µM	3.17 µM	1.84 µM	3.84 µM	1.88 µM	3.79 µM	2.16 µM	5.49 µM	3.17 µM	9.77 µM	2.91 µM	8.34 µM	1.9 µM	3.72 µM
C=C(C)[C@@H]1CC[C@]2(COCCCNCCCN)CC[C@]3(C)[C@H](CC[C@@H]4[C@@]5(C)CC[C@H](OCCCN)C(C)(C)[C@@H]5CC[C@]43C)[C@@H]12	0.846 µM	1.57 µM	0.876 µM	1.6 µM	0.982 µM	2.3 µM	0.866 µM	1.65 µM	0.765 µM	1.5 µM	0.996 µM	1.95 µM	0.914 µM	1.75 µM	0.863 µM	1.67 µM	0.868 µM	1.59 µM	0.825 µM	1.5 µM
CCN(CC)CCC(=O)OC1C(C)=CC(C)C(=O)CC(C(C)CC2CCC(O)C(OC)C2)OC(=O)C2CCCCN2C(=O)C(=O)[C@@]2(O)OC(CCC2C)CC(OC)\C(C)=C/C=C/C=C/C(C)CC(C)C(=O)C1OC (stereo not given in full)		19.2 µM		19.3 µM		21.5 µM		22.6 µM				22.2 µM		27.1 µM		26.7 µM		18.5 µM		22.4 µM
O=C1NC(=O)[C@@]2(CC[C@@H](O)C2)c2ccncc21		> 100 µM		> 100 µM		> 100 µM		> 100 µM		> 100 µM		> 100 µM		> 100 µM		> 100 µM				> 100 µM
